Data from patent US7329681B2, “Inhibitors of IMPDH enzyme” (Vertex Pharmaceuticals Incorporated, priority 1996, dated 2008).

Molecular target: IMPDH human type II (Homo sapiens, UniProt P12268)
Assay: IMPDH activity inhibition assay (spectrophotometric, NADH formation at 340 nm)
Assay type: biochemical
Details: not given
Procedure: We have measured the inhibition constants of each compound against IMPDH using an adaptation of the method first reported by […]. Moyed, and […]. Biol. Chem., 226, p. 339 (1957)]. We measured the inhibition constants of the compounds listed in Table III utilizing the following protocol: IMP dehydrogenase activity was assayed following an adaptation of the method first reported by […]. Moyed, H. S. and […]. Biol. Chem. 226, 339]. Enzyme activity was measured spectrophotometrically, by monitoring the increase in absorbance at 340 nm due to the formation of NADH (ε340 is 6220 M^-1 cm^-1). The reaction mixture contained 0.1 M Tris pH 8.0, 0.1 M KCl, 3 mM EDTA, 2 mM DTT, […] and enzyme (IMPDH human type II) at a concentration of 15 to 50 nM. This solution is incubated at 37° C. for 10 minutes. The reaction is started by adding NAD to a final concentration of 0.1 M and the initial rate is measured by following the linear increase in absorbance at 340 nm for 10 minutes. For reading in a standard spectrophotometer (path length 1 cm) the final volume in the cuvette is 1.0 ml. The assay has also been adapted to a 96 well microtiter plate format; in this case the concentrations of all the reagents remain the same and the final volume is decreased to 200 μl. For the analysis of inhibitors, the compound in question is dissolved in DMSO to a final concentration of 20 mM and added to the initial assay mixture for preincubation with the enzyme at a final volume of 2-5% (v/v). The reaction is started by the addition of NAD, and the initial rates measured as above. […] The designation “ND” is used where a given compound was not tested.

SMILES	Ki
COC(=O)c1ccc(OC(=O)NCc2cccc(NC(=O)Nc3ccc(-c4cnco4)c(OC)c3)c2)cc1 [Compound 123]	0.01 to 50 nM
COc1cc(NC(=O)Nc2cccc(CNC(=O)Oc3ccccc3)c2)ccc1-c1cnco1 [Compound 119]	0.01 to 50 nM

Same assay, conditions: IMPDH human type II, 15 to 50 nM enzyme, 37° C., tight-binding fit (Henderson); read-out: Ki

Ki	SMILES
1000 to 10000 nM	N#Cc1cccc(NC(=O)Nc2ccc(-c3cnco3)cc2)c1 [Compound 8]
0.01 to 50 nM	CN(C(=O)C(F)(F)F)c1cccc(NC(=O)Nc2ccc(-c3cnco3)c(Cl)c2)c1 [Compound 93]
1000 to 10000 nM	O=C(O)Cc1cccc(NC(=O)Nc2ccc(-c3cnco3)c(Cl)c2)c1 [Compound 63]
> 10000 nM	O=C(Nc1ccc(-c2cnco2)cc1)Nc1cccnc1 [Compound 29]
0.01 to 50 nM	COc1cc(NC(=O)Nc2cccc(CNC(=O)OC3CCCCC3)c2)ccc1-c1cnco1 [Compound 132]
> 10000 nM	NC(=O)c1cccc(NC(=O)Nc2ccc(-c3cnco3)cc2)c1 [Compound 51]
51 to 1000 nM	COc1cc(NC(=O)Nc2cccc(CNC(=O)OC(CO)CO)c2)ccc1-c1cnco1 [Compound 151]
1000 to 10000 nM	O=C(Nc1ccc(-c2cnco2)cc1)Nc1cccc(S(=O)(=O)NC2CCCCC2)c1 [Compound 80]
